This is an account of results in patent US11993603B2, “Preparation for 6-amino-1H-pyrazolo[3,4-d]pyrimidine-based JAK kinase inhibitor and application thereof” (INSTITUTE OF MATERIA MEDICA, CHINESE ACADEMY OF MEDICAL …, priority 2018, dated 2024).

Read-outs that look alike come from different tables or passages of the source.

Type in all cases: biochemical
One assay addresses JAK-1 (Homo sapiens (Human), UniProt P23458). The assay can be described thus: Inhibition test on JAK-1 kinase (FRET peptide substrate assay). The following applies: kinase 1 nM, 1 h at room temperature. From the text: (§1) Experiment Example (Inhibition Tests on JAK-1, JAK-2 and JAK-3 Kinases)
(§2) To evaluate the inhibitory activity of the compound on JAK-1, JAK-2 and JAK-3 kinases
(§3) A proteolytic enzyme is coupled to exert different proteolysis on a specific phosphorylated and nonphosphorylated peptide substrate based on fluorescence resonance energy transfer (FRET). Both ends of the peptide substrate were respectively labeled FRET energy donor coumarin and energy receptor fluorescein, and at this time, the donor was stimulated to produce energy transfer when the donor is close to a receptor.
(§4) In Kinase Reaction, JAK-1, JAK-2 or JAK-3 may transfer γ-phosphoric acid in ATP onto a single tyrosine residue of a peptide substrate; and there were JAK-1, JAK-2 or JAK-3 inhibitors in the system, γ-phosphoric acid groups on ATP would be not transferred onto the peptide substrate, thus resulting in the failure of phosphorylation. An evaluation experiment was designed based on the principle, a peptide substrate was designed with kinase phosphorylation sites, namely, protein restriction enzyme cutting sites; and both ends thereof were respectively connected with 2 fluorophores as a donor and a receptor respectively; if the kinase kept activity in the system, a γ-phosphonic acid group was transferred onto restriction enzyme cutting sites of the substrate, so that the γ-phosphonic acid group would not be cut and separated into two segments by a protease; moreover, under the stimulation of a laser having a specific wavelength, energy from a segment of fluorescence would be transferred onto another end of fluorophores, thus emitting energy. Otherwise, after kinase activity was inhibited, phosphoric acid groups would be not transferred, and restriction enzyme cutting sites in the substrate would be cut by a […] in the system to separate the substrate into two segments, thereby no energy transfer of fluorescence occurred. Based on this, the activity of the kinase was evaluated.
(§5) In this experiment, a 10 μl kinase reaction system was selected, firstly, 2.5 μl kinase (concentration: 1 nM), 2.5 μl peptide substrate (concentration: 2 μM), 2.5 μl ATP (concentration: […]) and 2.5 μl compound were added to each system for reaction for 1 h at room temperature, and then a 5 μl test solution was added for reaction for 1 h at room temperature, then a 5 μl stop buffer was added. A microplate reader (Synergy H1, BioTek, USA) was used to measure fluorescence intensity (emission intensity of coumarin at 445 nm and emission intensity of fluorescein at 520 nm were detected under the stimulation of 400 nm). The inhibitory activity of each compound was calculated, where it was believed that fluorescence intensity of a well not containing the kinase was 100% inhibited.

A further assay deals with JAK-3 (Homo sapiens (Human), UniProt P52333). The assay can be described thus: Inhibition test on JAK-3 kinase (FRET peptide substrate assay).
JAK-3, sequence (P52333 whole entry): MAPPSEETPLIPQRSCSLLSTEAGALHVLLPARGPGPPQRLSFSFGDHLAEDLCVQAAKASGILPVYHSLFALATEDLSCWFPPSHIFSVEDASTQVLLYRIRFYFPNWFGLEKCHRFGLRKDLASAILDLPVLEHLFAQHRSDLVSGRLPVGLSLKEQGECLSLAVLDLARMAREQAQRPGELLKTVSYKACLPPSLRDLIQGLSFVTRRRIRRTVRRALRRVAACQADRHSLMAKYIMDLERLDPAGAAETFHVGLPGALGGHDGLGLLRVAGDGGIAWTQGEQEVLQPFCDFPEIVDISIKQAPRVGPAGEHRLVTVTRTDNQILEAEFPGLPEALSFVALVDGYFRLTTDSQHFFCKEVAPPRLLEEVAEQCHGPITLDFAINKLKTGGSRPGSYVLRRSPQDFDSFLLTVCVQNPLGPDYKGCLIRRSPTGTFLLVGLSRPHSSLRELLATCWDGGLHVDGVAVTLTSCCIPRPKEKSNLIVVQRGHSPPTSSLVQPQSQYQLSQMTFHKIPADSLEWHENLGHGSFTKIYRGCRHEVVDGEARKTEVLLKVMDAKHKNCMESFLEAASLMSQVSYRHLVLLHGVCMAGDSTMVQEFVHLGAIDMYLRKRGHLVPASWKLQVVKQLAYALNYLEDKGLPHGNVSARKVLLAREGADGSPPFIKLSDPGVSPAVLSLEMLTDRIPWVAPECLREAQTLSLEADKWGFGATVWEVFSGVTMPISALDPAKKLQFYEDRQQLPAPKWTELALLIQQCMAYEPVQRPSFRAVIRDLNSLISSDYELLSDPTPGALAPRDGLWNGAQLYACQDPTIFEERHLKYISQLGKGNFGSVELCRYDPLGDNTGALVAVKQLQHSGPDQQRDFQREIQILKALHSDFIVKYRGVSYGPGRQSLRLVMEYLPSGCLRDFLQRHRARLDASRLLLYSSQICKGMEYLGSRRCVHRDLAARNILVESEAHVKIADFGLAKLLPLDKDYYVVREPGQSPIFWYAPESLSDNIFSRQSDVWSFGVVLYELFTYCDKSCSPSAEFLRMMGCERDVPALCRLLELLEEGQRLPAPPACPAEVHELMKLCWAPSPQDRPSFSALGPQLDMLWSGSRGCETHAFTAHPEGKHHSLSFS
From the text: as §1, §2, §3, §4, §5

The next assay addresses JAK-2 (Homo sapiens (Human), UniProt O60674). In words: Inhibition test on JAK-2 kinase (FRET peptide substrate assay). Conditions: kinase 1 nM, 1 h at room temperature.
From the text: as §1, §2, §3, §4, §5

[1] abbreviates: kinase 1 nM, 1 h at room temperature, read-out: IC50 (nM) JAK-3.

JAK-1, sequence (P23458 whole entry): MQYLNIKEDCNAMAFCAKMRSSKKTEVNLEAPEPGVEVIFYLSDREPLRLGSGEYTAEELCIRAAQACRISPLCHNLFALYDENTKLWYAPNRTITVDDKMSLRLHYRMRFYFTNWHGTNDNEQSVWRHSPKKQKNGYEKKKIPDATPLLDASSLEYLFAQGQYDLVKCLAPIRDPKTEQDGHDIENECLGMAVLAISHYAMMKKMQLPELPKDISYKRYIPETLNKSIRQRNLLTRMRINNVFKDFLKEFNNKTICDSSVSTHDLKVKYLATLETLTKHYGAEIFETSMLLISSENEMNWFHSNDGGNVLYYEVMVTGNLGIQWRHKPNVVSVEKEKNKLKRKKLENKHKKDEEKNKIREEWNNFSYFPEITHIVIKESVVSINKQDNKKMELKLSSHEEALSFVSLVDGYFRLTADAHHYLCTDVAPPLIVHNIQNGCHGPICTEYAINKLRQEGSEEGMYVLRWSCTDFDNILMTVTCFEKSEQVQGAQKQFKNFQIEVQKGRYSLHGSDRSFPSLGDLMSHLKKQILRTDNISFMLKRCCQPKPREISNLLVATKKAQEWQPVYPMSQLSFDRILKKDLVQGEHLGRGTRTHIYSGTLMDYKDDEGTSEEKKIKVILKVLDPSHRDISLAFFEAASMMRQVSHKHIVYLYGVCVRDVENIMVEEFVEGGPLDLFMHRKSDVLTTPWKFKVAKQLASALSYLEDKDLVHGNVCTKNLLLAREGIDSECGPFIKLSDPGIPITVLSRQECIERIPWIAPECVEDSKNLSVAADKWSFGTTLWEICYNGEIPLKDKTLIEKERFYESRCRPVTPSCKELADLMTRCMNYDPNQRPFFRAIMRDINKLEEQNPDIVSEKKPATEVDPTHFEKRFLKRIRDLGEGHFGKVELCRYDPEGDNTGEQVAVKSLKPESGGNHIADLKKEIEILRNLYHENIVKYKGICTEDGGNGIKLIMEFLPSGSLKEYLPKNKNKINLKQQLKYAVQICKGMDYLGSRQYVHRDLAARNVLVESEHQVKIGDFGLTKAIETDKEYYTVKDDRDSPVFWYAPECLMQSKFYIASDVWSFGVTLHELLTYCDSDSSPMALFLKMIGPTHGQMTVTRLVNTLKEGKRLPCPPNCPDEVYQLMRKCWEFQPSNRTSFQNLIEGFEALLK
JAK-2, sequence (O60674 whole entry): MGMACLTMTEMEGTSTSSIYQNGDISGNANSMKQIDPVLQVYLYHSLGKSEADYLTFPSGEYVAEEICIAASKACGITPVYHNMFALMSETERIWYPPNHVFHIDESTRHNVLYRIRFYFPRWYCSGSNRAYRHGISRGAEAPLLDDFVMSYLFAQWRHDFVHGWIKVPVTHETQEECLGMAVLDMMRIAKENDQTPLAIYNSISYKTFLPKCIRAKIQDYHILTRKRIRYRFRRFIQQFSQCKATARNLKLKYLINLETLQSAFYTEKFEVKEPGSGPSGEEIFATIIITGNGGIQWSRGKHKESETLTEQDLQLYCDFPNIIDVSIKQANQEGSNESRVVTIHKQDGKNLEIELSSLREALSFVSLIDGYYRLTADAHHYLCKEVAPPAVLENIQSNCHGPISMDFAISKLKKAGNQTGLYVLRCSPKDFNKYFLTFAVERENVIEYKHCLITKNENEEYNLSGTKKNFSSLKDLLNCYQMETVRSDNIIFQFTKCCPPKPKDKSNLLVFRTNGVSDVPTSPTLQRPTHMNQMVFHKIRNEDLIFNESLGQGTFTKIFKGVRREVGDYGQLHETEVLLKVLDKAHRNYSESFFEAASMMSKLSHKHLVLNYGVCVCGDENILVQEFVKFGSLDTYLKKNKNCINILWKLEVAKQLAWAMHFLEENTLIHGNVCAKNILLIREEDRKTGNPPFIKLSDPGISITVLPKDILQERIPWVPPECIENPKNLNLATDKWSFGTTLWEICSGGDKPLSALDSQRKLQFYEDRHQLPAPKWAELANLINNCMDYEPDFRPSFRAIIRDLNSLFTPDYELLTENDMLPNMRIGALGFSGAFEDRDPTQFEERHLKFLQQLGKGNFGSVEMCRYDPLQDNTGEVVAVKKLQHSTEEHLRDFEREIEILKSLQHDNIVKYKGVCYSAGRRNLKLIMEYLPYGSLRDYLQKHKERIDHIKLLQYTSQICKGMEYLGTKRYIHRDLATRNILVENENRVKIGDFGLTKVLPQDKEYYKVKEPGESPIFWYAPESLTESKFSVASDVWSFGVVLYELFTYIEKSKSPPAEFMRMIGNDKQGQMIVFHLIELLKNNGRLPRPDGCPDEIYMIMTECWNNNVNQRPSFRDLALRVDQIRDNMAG

`C=CC(=O)Nc1cccc(Cn2ncc3cnc(Nc4ccc(N5CCN(C)CC5)cc4)nc32)c1` [Example 7, N-(3-((6-((4-(4-methylpiperazin-1-yl)phenyl)amino)-1H-pyrazolo[3,4-d]pyrimidin-1-yl)methyl)phenyl)acrylamide]: the IC50 (usually the concentration that inhibits the measured activity by half) worked out at 942 nM at JAK-1, 6.1 nM on JAK-3 (setting [1]) and 1080 nM on JAK-2.
Taken in the same sequence, the figures for `C=CC(=O)Nc1cccc(Cn2ncc3cnc(Nc4ccc(N5CCOCC5)cc4)nc32)c1` [Example 6, N-(3-((6-((4-morpholinylphenyl)amino)-1H-pyrazolo[3,4-d]pyrimidin-1-yl)methyl)phenyl)acrylamide] were 1000 nM, 0.1 nM and 3100 nM.
As for `C/C=C/C(=O)Nc1ccc(Cn2ncc3cnc(Nc4ccc(N5CCOCC5)cc4)nc32)cc1` [Example 27, N-(4-((6-((4-morpholinylphenyl)amino)-1H-pyrazolo[3,4-d]pyrimidin-1-yl)methyl)phenyl)but-2-enamide], the IC50 worked out at 960 nM at JAK-1, 2 nM on JAK-3 (setting [1]) and 893 nM at JAK-2.
As to `C=CC(=O)Nc1ccc(Cn2ncc3cnc(Nc4ccc(N5CCN(C)CC5)cc4)nc32)cc1` [Example 21, N-(4-((6-((4-(4-methylpiperazin-1-yl)phenyl)amino)-1H-pyrazolo[3,4-d]pyrimidin-1-yl)methyl)phenyl)acrylamide], the IC50 on JAK-1 was 2850 nM; at JAK-3 (setting [1]) it was 0.2 nM; on JAK-2, 1800 nM.
Regarding `C=CC(=O)Nc1cccc(Cn2ncc3cnc(Nc4cnn(C)c4)nc32)c1` [Example 2], the IC50 at JAK-1 amounted to 1390 nM; on JAK-3 (setting [1]) it was 2.2 nM; on JAK-2, 941 nM.
The like results for `C=CC(=O)Nc1ccc(Cn2ncc3cnc(Nc4cnn(C)c4)nc32)cc1` [Example 16, N-(4-((6-((1-methyl-1H-pyrazol-4-yl)amino)-1H-pyrazolo[3,4-d]pyrimidine-1-yl)methyl)phenyl)acrylamide] were, in that order, 1410 nM, 1.4 nM and 770 nM.
Taken in the same sequence, the figures for `C=CC(=O)Nc1ccc(Cn2ncc3cnc(Nc4cnn(CCO)c4)nc32)cc1` [Example 17, N-(4-((6-((1-(2-hydroxyethyl)-1H-pyrazol-4-yl)amino)-1H-pyrazolo[3,4-d]pyrimidin-1-yl)methyl)phenyl)acrylamide] were 1420 nM, 2 nM and 846 nM.
The like results for `C/C=C/C(=O)Nc1cccc(Cn2ncc3cnc(Nc4ccc(F)cc4)nc32)c1` [Example 12, N-(3-((6-((4-fluorophenyl)amino)-1H-pyrazolo[3,4-d]pyrimidin-1-yl)methyl)phenyl)but-2-enamide] were, in that order, 1030 nM, 0.2 nM and 2310 nM.
With `C=CC(=O)Nc1ccc(Cn2ncc3cnc(Nc4cnn(CCOC)c4)nc32)cc1` [Example 15, N-(4-((6-((1-(2-methoxyethyl)-1H-pyrazol-4-yl)amino)-1H-pyrazolo[3,4-d]pyrimidine-1-yl)methyl)phenyl)acrylamide], the IC50 was determined as 1540 nM at JAK-1, 0.5 nM on JAK-3 (setting [1]) and 602 nM at JAK-2.
Regarding `C/C=C/C(=O)Nc1ccc(Cn2ncc3cnc(Nc4ccc(N5CCN(C)CC5)cc4)nc32)cc1` [Example 28, N-(4-((6-((4-(4-methylpiperazin-1-yl)phenyl)amino)-1H-pyrazolo[3,4-d]pyrimidin-1-yl)methyl)phenyl)but-2-enamide], the values for the IC50 on JAK-1, at JAK-3 (setting [1]) and on JAK-2 were 4090 nM, 2.3 nM and 790 nM, respectively.
As for `C/C=C/C(=O)Nc1cccc(Cn2ncc3cnc(Nc4cnn(CCOC)c4)nc32)c1` [Example 8, N-(3-((6-((1-(2-methoxy-ethyl)-1H-pyrazol-4-yl)amino)-1H-pyrazolo[3,4-d]pyrimidine-1-yl)methyl)phenyl)but-2-enamide], the IC50 on JAK-1 turned out to be 701 nM; on JAK-3 (setting [1]) it was 3 nM; at JAK-2 it was 610 nM.
Take `C/C=C/C(=O)Nc1cccc(Cn2ncc3cnc(Nc4ccc(N5CCN(C)CC5)cc4)nc32)c1` [Example 14, N-(3-((6-((4-(4-methylpiperazin-1-yl)phenyl)amino)-1H-pyrazolo[3,4-d]pyrimidin-1-yl)methyl)phenyl)but-2-enamide]: the figures for the IC50 at JAK-1, on JAK-3 (setting [1]) and at JAK-2 were 274 nM, 0.9 nM and 1310 nM, respectively.
Taken in the same sequence, the figures for `C=CC(=O)Nc1ccc(Cn2ncc3cnc(Nc4ccc(N5CCOCC5)cc4)nc32)cc1` [Example 20, N-(4-((6-((4-morpholinylphenyl)amino)-1H-pyrazolo[3,4-d]pyrimidin-1-yl)methyl)phenyl)acrylamide] were 934 nM, 1.7 nM and 892 nM.
Take `C=CC(=O)Nc1cccc(Cn2ncc3cnc(Nc4cnn(CCOC)c4)nc32)c1` [Example 1, N-(3-((6-((1-(2-methoxyethyl)-1H-pyrazol-4-yl)amino)-1H-pyrazolo[3,4-d]pyrimidine-1-yl)methyl)phenyl)acrylamide]: the half-maximal inhibitory concentration (IC50) on JAK-3 (differs from Table 5, read-out: JAK-3 inhibitory activity IC50) is 0.085 nM; at JAK-3 (setting [1]) it was 1.4 nM; on JAK-2 it was 747 nM.
For `C/C=C/C(=O)Nc1ccc(Cn2ncc3cnc(Nc4cnn(CCO)c4)nc32)cc1` [Example 24, N-(4-((6-((1-(2-hydroxyethyl)-1H-pyrazol-4-yl)amino)-1H-pyrazolo[3,4-d]pyrimidin-1-yl)methyl)phenyl)but-2-enamide], the values for the IC50 at JAK-1, at JAK-3 (setting [1]) and at JAK-2 were 1120 nM, 0.2 nM and 948 nM, respectively.
Taken in the same sequence, the figures for `C=CC(=O)Nc1cccc(Cn2ncc3cnc(Nc4ccccc4)nc32)c1` [Example 4, N-(3-((6-aniline-1H-pyrazolo[3,4-d]pyrimidin-1-yl)methyl)phenyl)acrylamide] were 901 nM, 1.1 nM and 1120 nM.
The like results for `C/C=C/C(=O)Nc1cccc(Cn2ncc3cnc(Nc4cnn(C)c4)nc32)c1` [Example 9, N-(3-((6-((1-methyl-1H-pyrazol-4-yl)amino)-1H-pyrazolo[3,4-d]pyrimidin-1-yl)methyl)phenyl)but-2-enamide] were, in that order, 618 nM, 2.1 nM and 860 nM.
Taken in the same sequence, the figures for `C/C=C/C(=O)Nc1ccc(Cn2ncc3cnc(Nc4cnn(CCOC)c4)nc32)cc1` [Example 22, N-(4-((6-((1-(2-methoxy-ethyl)-1H-pyrazol-4-yl)amino)-1H-pyrazolo[3,4-d]pyrimidine-1-yl)methyl)phenyl)but-2-enamide] were 918 nM, 2 nM and 1250 nM.
On to `C/C=C/C(=O)Nc1cccc(Cn2ncc3cnc(Nc4ccccc4)nc32)c1` [Example 11, N-(3-((6-aniline-1H-pyrazolo[3,4-d]pyrimidin-1-yl)methyl)phenyl)but-2-enamide], for which the half-maximal inhibitory concentration (IC50) at JAK-1 turned out to be 830 nM; on JAK-3 (setting [1]), 1.4 nM; at JAK-2, 690 nM.
Taken in the same sequence, the figures for `C=CC(=O)Nc1ccc(Cn2ncc3cnc(Nc4ccc(F)cc4)nc32)cc1` [Example 19, N-(4-((6-((4-fluorophenyl)amino)-1H-pyrazolo[3,4-d]pyrimidin-1-yl)methyl)phenyl)acrylamide] were 1580 nM, 3.7 nM and 1800 nM.
Taken in the same sequence, the figures for `C/C=C/C(=O)Nc1cccc(Cn2ncc3cnc(Nc4ccc(N5CCOCC5)cc4)nc32)c1` [Example 13, N-(3-((6-((4-morpholinylphenyl)amino)-1H-pyrazolo[3,4-d]pyrimidin-1-yl)methyl)phenyl)but-2-enamide] were 890 nM, 0.4 nM and 710 nM.
Taken in the same sequence, the figures for `C/C=C/C(=O)Nc1ccc(Cn2ncc3cnc(Nc4ccc(F)cc4)nc32)cc1` [Example 26, N-(4-((6-((4-fluorophenyl)amino)-1H-pyrazolo[3,4-d]pyrimidine-1-yl)methyl)phenyl)but-2-enamide] were 880 nM, 0.3 nM and 804 nM.
Take `C=CC(=O)Nc1cccc(Cn2ncc3cnc(Nc4cnn(CCO)c4)nc32)c1` [Example 3, N-(3-((6-((1-(2-hydroxyethyl)-1H-pyrazol-4-yl)amino)-1H-pyrazolo[3,4-d]pyrimidin-1-yl)methyl)phenyl)acrylamide]: the half-inhibitory concentration (IC50) worked out at 829 nM on JAK-1, 0.13 nM on JAK-3 (setting [1]) and 4220 nM on JAK-2.
